Common to all, as to assay: ≥ marks a high value that may be exact or a test limit, other limits are often not marked, values filed in µg/mL are converted to µM
The subject of assay [1] is Candida albicans ATCC 10231.
The subject of assay [2] is Bacillus subtilis ATCC 23857.
The test system of assay [3] is Staphylococcus aureus NCTC 10788.
Assay [4] concerns Pseudomonas aeruginosa CMCCB 10104.
The test system of assay [5] is Candida albicans ATCC 2002.
Assay [6] concerns Staphylococcus aureus ATCC 25923.
For assay [7], the system named is Escherichia coli ATCC 25922.
Assay [8] has as its system Escherichia coli NCTC 10418.
For assay [9], the system named is Candida albicans ATCC 90028.
The subject of assay [10] is Staphylococcus aureus NCTC 8325.
The subject of assay [11] is Pseudomonas aeruginosa ATCC 9027.
Assay [12] relates to Klebsiella pneumoniae ATCC 700603.

Values after ≈ are worked out from the molar mass of the structure shown.

From DBAASP come the findings set out here.

Consider `C[C@H](N)C(=O)N[C@@H](C)C(=O)N[C@@H](CCCN=C(N)N)C(=O)N[C@@H](CCCN=C(N)N)C(=O)N[C@@H](C)C(=O)N[C@@H](C)C(=O)N[C@@H](CCCN=C(N)N)C(=O)N[C@@H](CCCN=C(N)N)C(=O)N[C@@H](C)C(=O)N[C@@H](C)C(=O)N[C@@H](CCCN=C(N)N)C(=O)N[C@@H](CCCN=C(N)N)C(N)=O` [AARRAARRAARR], for which the MIC in assay [1] was > 362 µM; in [2] it was ≥ 362 µM.
With `CC(C)C[C@H](NC(=O)[C@H](CC(C)C)NC(=O)CNC(=O)CNC(=O)[C@H](CC(C)C)NC(=O)[C@H](CC(C)C)NC(=O)CNC(=O)[C@H](CC(C)C)NC(=O)[C@@H](N)Cc1ccccc1)C(N)=O` [FLGLLGGLL], the MIC in assay [3] was ≥ 284 µM.
With `CC[C@H](C)[C@@H]1NC(=O)[C@H](C)NC(=O)[C@@H](NC(=O)[C@H](Cc2ccccc2)NC(=O)[C@@H](NC(=O)[C@@H](NC(=O)[C@@H]2CCCN2C(=O)[C@H](CC(C)C)NC(=O)[C@@H](NC(=O)[C@H](Cc2cnc[nH]2)NC(=O)[C@@H](NC(=O)[C@H](C)NC(=O)[C@@H](NC(=O)[C@H](CC(C)C)NC(=O)[C@H](CC(C)C)NC(=O)[C@@H](NC(=O)[C@H](C)NC(=O)[C@@H]2CCCN2C(=O)[C@H](CC(C)C)NC(=O)[C@@H](N)Cc2ccccc2)C(C)C)C(C)C)[C@@H](C)O)C(C)C)[C@@H](C)O)C(C)C)CSSC[C@@H](C(=O)O)NC(=O)[C@H](CCCCN)NC(=O)[C@H](CCCN=C(N)N)NC(=O)[C@H]([C@@H](C)O)NC1=O` [FLPAVLLVATHVLPTVFCAITRKC], the MIC is 10.4 µM (≈ 27.2 µg/mL) in [4], 2.6 µM (≈ 6.79 µg/mL) in [5], 2.6 µM (≈ 6.79 µg/mL) in assay [6] and 1.3 µM (≈ 3.4 µg/mL) in assay [7].
As for `CC[C@H](C)[C@H](NC(=O)[C@@H](NC(=O)[C@@H]1CCCN1C(=O)[C@H](CC(C)C)NC(=O)[C@@H](N)Cc1ccccc1)C(C)C)C(=O)N[C@@H](C)C(=O)NCC(=O)N[C@H](C(=O)N[C@@H](CC(C)C)C(=O)N[C@@H](CO)C(=O)N[C@@H](CCCCN)C(=O)N[C@@H](CC(C)C)C(=O)N[C@@H](Cc1ccccc1)C(N)=O)C(C)C` [FLPVIAGVLSKLF], the MIC in [3] was 10 µM (≈ 14 µg/mL); in assay [8] it was ≥ 40 µM.
On to `CC[C@H](C)[C@H](NC(=O)CN)C(=O)N[C@H](C(=O)N[C@@H](CCCN=C(N)N)C(=O)NCC(=O)N[C@H](C(=O)N[C@H](C(=O)N[C@@H](CCCN=C(N)N)C(=O)N[C@@H](CCCN=C(N)N)C(=O)N[C@H](C(=O)N[C@@H](CCCCN)C(=O)NCC(N)=O)[C@@H](C)CC)[C@@H](C)CC)[C@@H](C)CC)[C@@H](C)CC` [GIIRGIIRRIKG], for which the MIC in [2] was 8 µM (≈ 10.8 µg/mL); in assay [7] it was > 128 µM.
Regarding `CC[C@H](C)[C@H](NC(=O)CN)C(=O)N[C@@H](CCCN=C(N)N)C(=O)N[C@@H](CCCN=C(N)N)C(=O)NCC(=O)N[C@H](C(=O)N[C@H](C(=O)N[C@@H](CCCN=C(N)N)C(=O)N[C@H](C(=O)N[C@H](C(=O)N[C@@H](CCCCN)C(=O)N[C@@H](CCCN=C(N)N)C(N)=O)[C@@H](C)CC)[C@@H](C)CC)[C@@H](C)CC)[C@@H](C)CC` [GIRRGIIRIIKR], the values for the MIC in [2] and in [7] were 16 µM (≈ 23.2 µg/mL) and 64 µM (≈ 92.8 µg/mL), respectively.
As for `CC[C@H](C)[C@H](NC(=O)CN)C(=O)N[C@@H](CCCN=C(N)N)C(=O)N[C@@H](CCCN=C(N)N)C(=O)NCC(=O)N[C@H](C(=O)N[C@@H](CCCN=C(N)N)C(=O)N[C@@H](CCCN=C(N)N)C(=O)N[C@H](C(=O)N[C@@H](CCCCN)C(=O)N[C@@H](CCCCN)C(=O)N[C@@H](CCCN=C(N)N)C(N)=O)[C@@H](C)CC)[C@@H](C)CC` [GIRRGIRRIKKR], the MIC in assay [2] is ≥ 128 µM; in assay [7] it was > 128 µM.
`CC[C@H](C)[C@H](NC(=O)[C@H](CC(C)C)NC(=O)[C@H](CC(C)C)NC(=O)[C@H](CC(N)=O)NC(=O)[C@H](CCCCN)NC(=O)[C@@H](NC(=O)[C@@H](NC(=O)CNC(=O)[C@H](CC(C)C)NC(=O)[C@@H](NC(=O)CN)C(C)C)[C@@H](C)O)C(C)C)C(=O)NCC(=O)N[C@@H](C)C(=O)NCC(=O)N[C@@H](CCCCN)C(=O)N[C@@H](CO)C(=O)N[C@@H](C)C(=O)N[C@@H](C)C(=O)N[C@@H](CCC(N)=O)C(=O)N[C@@H](CO)C(=O)N[C@H](C(=O)N[C@@H](CC(C)C)C(=O)N[C@@H](CCCCN)C(=O)N[C@H](C(=O)N[C@@H](CC(C)C)C(=O)N[C@@H](CO)C(=O)N[C@H]1CSSC[C@@H](C(=O)O)NC(=O)[C@H](CC(=O)O)NC(=O)[C@H](CC(N)=O)NC(=O)[C@H](CO)NC(=O)[C@H](CC(C)C)NC(=O)[C@H](CCCCN)NC1=O)[C@@H](C)O)C(C)C` [GVLGTVKNLLIGAGKSAAQSVLKTLSCKLSNDC]: the MIC in assay [9] was ≥ 100 µM; in assay [10] it was 25 µM (≈ 82.2 µg/mL); in [7] it was 6 µM (≈ 19.7 µg/mL).
`CC[C@H](C)[C@H](N)C(=O)N[C@@H](CC(C)C)C(=O)N1CCC[C@H]1C(=O)N[C@H](C(=O)N[C@@H](CC(C)C)C(=O)NCC(=O)N[C@@H](CC(N)=O)C(=O)N[C@@H](CC(C)C)C(=O)N[C@@H](CC(C)C)C(=O)N[C@@H](CC(N)=O)C(=O)NCC(=O)N[C@@H](CC(C)C)C(=O)N[C@@H](CC(C)C)C(N)=O)[C@@H](C)CC` [ILPILGNLLNGLL]: the MIC is ≥ 100 µM in assay [9], ≥ 100 µM in [10] and > 100 µM in assay [7].
For `CC[C@H](C)[C@H](NC(=O)[C@H](CCCCN)NC(=O)[C@H](CCCCN)NC(=O)[C@H](C)NC(=O)[C@@H](NC(=O)[C@H](C)NC(=O)[C@H](CC(C)C)NC(=O)[C@H](CC(C)C)NC(=O)[C@H](C)NC(=O)[C@H](CCCCN)NC(=O)[C@H](CC(C)C)NC(=O)[C@H](C)NC(=O)[C@@H](N)CC(C)C)C(C)C)C(=O)N[C@@H](CC(C)C)C(N)=O` [LALKALLAVAKKIL], the MIC in [2] came out at 4 µM (≈ 5.86 µg/mL); in assay [6] it was 4 µM (≈ 5.86 µg/mL); in [11], 8 µM (≈ 11.7 µg/mL); in assay [7], 4 µM (≈ 5.86 µg/mL); in [12], 8 µM (≈ 11.7 µg/mL).
Take `CC[C@H](C)[C@H](NC(=O)[C@H](CCCCN)NC(=O)[C@H](CCCCN)NC(=O)[C@H](C)NC(=O)[C@@H](NC(=O)[C@H](C)NC(=O)[C@H](CC(C)C)NC(=O)[C@H](CC(C)C)NC(=O)[C@H](C)NC(=O)[C@H](C)NC(=O)[C@H](CC(C)C)NC(=O)[C@H](CC(N)=O)NC(=O)[C@@H](N)CC(C)C)C(C)C)C(=O)N[C@@H](CC(C)C)C(N)=O` [LNLAALLAVAKKIL]: the MIC was found to be 16 µM (≈ 23.2 µg/mL) in assay [2]; 4 µM (≈ 5.8 µg/mL) in assay [6]; 32 µM (≈ 46.4 µg/mL) in assay [11]; 8 µM (≈ 11.6 µg/mL) in [7]; 32 µM (≈ 46.4 µg/mL) in assay [12].
As for `CC(C)C[C@H](NC(=O)[C@H](C)NC(=O)[C@H](CCCCN)NC(=O)[C@H](CCCCN)NC(=O)[C@H](C)NC(=O)[C@@H](NC(=O)[C@H](C)NC(=O)[C@H](CC(C)C)NC(=O)[C@H](CC(C)C)NC(=O)[C@H](C)NC(=O)[C@H](CCCCN)NC(=O)[C@H](CC(C)C)NC(=O)[C@H](CC(N)=O)NC(=O)[C@@H](N)CC(C)C)C(C)C)C(N)=O` [LNLKALLAVAKKAL], the MIC was found to be 8 µM (≈ 11.7 µg/mL) in assay [2]; 32 µM (≈ 46.9 µg/mL) in [6]; 32 µM (≈ 46.9 µg/mL) in assay [11]; 8 µM (≈ 11.7 µg/mL) in assay [7]; 32 µM (≈ 46.9 µg/mL) in [12].
Consider `CC[C@H](C)[C@H](NC(=O)[C@H](CCCCN)NC(=O)[C@H](CCCCN)NC(=O)[C@H](C)NC(=O)[C@@H](NC(=O)[C@H](C)NC(=O)[C@H](CC(C)C)NC(=O)[C@H](CC(C)C)NC(=O)[C@H](C)NC(=O)[C@H](CCCCN)NC(=O)[C@H](CC(C)C)NC(=O)[C@H](CC(N)=O)NC(=O)[C@@H](N)CC(C)C)C(C)C)C(=O)N[C@@H](C)C(N)=O` [LNLKALLAVAKKIA], for which the MIC is 8 µM (≈ 11.7 µg/mL) in assay [2]; 32 µM (≈ 46.9 µg/mL) in assay [6]; 32 µM (≈ 46.9 µg/mL) in [11]; 8 µM (≈ 11.7 µg/mL) in [7]; 16 µM (≈ 23.4 µg/mL) in assay [12].
Turning to `CC[C@H](C)[C@@H]1NC(=O)[C@H](CCCCN)NC(=O)[C@@H](NC(=O)[C@H](C)NC(=O)[C@@H](NC(=O)[C@H](CC(C)C)NC(=O)CNC(=O)[C@H](CC(C)C)NC(=O)CNC(=O)[C@@H](NC(=O)[C@H](CCCCN)NC(=O)CNC(=O)[C@H](CC(C)C)NC(=O)[C@H](CC(N)=O)NC(=O)[C@H](CCCCN)NC(=O)[C@H](CC(C)C)NC(=O)[C@@H](NC(=O)[C@H](CO)NC(=O)[C@H](CC(C)C)NC(=O)[C@H](CCSC)NC(=O)[C@@H](N)CO)C(C)C)C(C)C)C(C)C)CSSC[C@@H](C(=O)O)NC(=O)[C@H](CCC(N)=O)NC(=O)[C@H](CCCCN)NC(=O)[C@H](CC(N)=O)NC1=O` [SMLSVLKNLGKVGLGLVACKINKQC], the figures for the MIC in assay [9], in assay [10] and in assay [7] were ≥ 58 µM, ≥ 55 µM and 1.5 µM (≈ 3.92 µg/mL), respectively.
